Data set [1] concerns HIV-1IIIB. As to the kind of experiment: HIV-1 antiviral assay (CPE reduction). The class given is cell-based. The following applies: peptide 10 micrograms per ml; 6 days post-infection; MTS.
The test system of data set [2] is CEM-SS cells. Kind of data set: Cytotoxicity in the HIV-1 assay (MTS cell viability). As to conditions: peptide 10 micrograms per ml, MTS.
For data set [3], the system named is MRC-5 cells. As to the kind of experiment: Cytotoxicity testing in MRC-5 cells. The class given is cell-based, human. As to conditions: 6 days incubation, CellTiter 96.
The nature of data set [4]: Cytotoxicity in the HBV assay (dye uptake cell viability). The class given is cell-based. The following applies: human, HepG2-2.2.15 cells, peptide 10 micrograms per ml, % cell control. On the procedure: HepG2-2.2.15 cells were plated in 96-well microtiter plates. After 16-24 hours the confluent monolayer of HepG2-2.2.15 cells was washed and the medium was replaced with complete medium containing test peptide—10 micrograms per ml—in duplicate. Lamivudine (3TC) was used as the positive control, while media alone was added to the cells as a negative control (virus control). Three days later the culture medium was replaced with fresh medium containing the peptide. Six days following the initial administration of the peptide, the cell culture supernatants was collected, treated with pronase and DNAse and then used in a real-time quantitative TaqMan PCR assay. The PCR-amplified HBV DNA was detected in real-time by monitoring increases in fluorescence signals that result from the exonucleolytic degradation of a quenched fluorescence probe molecule that hybridizes to the mplified HBV DNA. For each PCR amplification, a standard curve was simultaneously generated using dilutions of purified HBV DNA. Antiviral activity was calculated from the reduction in HBV DNA levels (% virus control). A novel dye uptake assay was then employed to measure cell viability, which is used to calculate toxicity (% cell control).

Data set [5] concerns Pseudomonas aeruginosa. In kind it is cell-based. As to conditions: 5 micrograms per ml.
Data set [6] can be described thus: Cytotoxicity testing in MRC-5 cells. The class given is cell-based, human. The following applies: human, 6 days incubation, CellTiter 96, read-out: % Cell viability.
Data set [7] has as its system MRSA. The following applies: 5 micrograms per ml.
The subject of data set [8] is Streptococcus pneumoniae. In kind it is cell-based. As to conditions: 5 micrograms per ml.
Data set [9] in a line: Cytotoxicity in the HIV-1 assay (MTS cell viability). As to conditions: human, CEM-SS cells.

With `Cc1cn([C@H]2C[C@H](N=[N+]=[N-])[C@@H](CO)O2)c(=O)[nH]c1=O` [AZT, reference compound], in data set [1], the “% CPE reduction in HIV-1 infected CEM-SS cells” value worked out at 99%. Moreover, in data set [2], the “% Cell viability” value was determined as 97%.

For `Nc1nc(O)c2ncn(COC(CO)CO)c2n1` [Ganciclovir, reference compound], the “% Cell viability” value in [3] came to 100%.

By viability is commonly meant the share of living cells, or the viability signal relative to a control. The term % inhibition denotes how much of the control response was suppressed. A lower % inhibition goes with a response near the control. For `NCC(=O)N1CCC[C@H]1C(=O)N[C@@H](CCC(=O)O)C(=O)O` [IGF-I (1-3), Gly-Pro-Glu-OH], the viability at 144 h, 10 micrograms per ml in [4] stood at 98.2%. Besides, the “% inhibition” value in data set [5], in data set [7] and in data set [8] was 0.0% each time. For the same compound, the viability at 144 h in data set [6] was determined as 100%. Moreover, the viability at 10 micrograms per ml in [9] amounted to 100%.

These data come from patent US20100184708A1, “USE OF GLY-PRO-GLU-OH (GPE) AS A THERAPEUTIC AGENT” (priority 2007, published 2010).
